Measured values from PubChem BioAssay AID1259407 (Chemical Carcinogenesis Research Information System (CCRIS), 2018).
Activity calls are given as the source filed them. No rule for the calls is given here.

Tested on: CCRIS mutagenicity, Ames/micronucleus/aberration tests
Assay: CCRIS mutagenicity studies
Conditions: Test System: AMES SALMONELLA TYPHIMURIUM
[1] = Strain/Indicator: TA98, Metabolic Activation: HAMSTER, LIVER, S-9, AROCLOR 1254 (10%), Method: PREINCUBATION
[2] = Strain/Indicator: TA98, Metabolic Activation: NONE, Method: PREINCUBATION
[3] = Strain/Indicator: TA98, Metabolic Activation: RAT, LIVER, S-9, AROCLOR 1254 (10%), Method: PREINCUBATION
[4] = Strain/Indicator: TA100, Metabolic Activation: HAMSTER, LIVER, S-9, AROCLOR 1254 (10%), Method: PREINCUBATION
[5] = Strain/Indicator: TA100, Metabolic Activation: NONE, Method: PREINCUBATION
[6] = Strain/Indicator: TA100, Metabolic Activation: RAT, LIVER, S-9, AROCLOR 1254 (10%), Method: PREINCUBATION
[7] = Strain/Indicator: TA1535, Metabolic Activation: NONE, Method: PREINCUBATION
[8] = Strain/Indicator: TA1537, Metabolic Activation: NONE, Method: PREINCUBATION
[9] = Strain/Indicator: TA98, Metabolic Activation: NONE, Method: STANDARD PLATE
[10] = Strain/Indicator: TA97, Metabolic Activation: HAMSTER, LIVER, S-9, AROCLOR 1254 (10 OR 30%), Method: PREINCUBATION
[11] = Strain/Indicator: TA97, Metabolic Activation: NONE, Method: PREINCUBATION
[12] = Strain/Indicator: TA97, Metabolic Activation: RAT, LIVER, S-9, AROCLOR 1254 (10 OR 30%), Method: PREINCUBATION
[13] = Strain/Indicator: TA98, Metabolic Activation: HAMSTER, LIVER, S-9, AROCLOR 1254 (30%), Method: PREINCUBATION
[14] = Strain/Indicator: TA100, Metabolic Activation: HAMSTER, LIVER, S-9, AROCLOR 1254 (30%), Method: PREINCUBATION
[15] = Strain/Indicator: TA100, Metabolic Activation: RAT, LIVER, S-9, AROCLOR 1254 (30%), Method: PREINCUBATION
[16] = Strain/Indicator: TA1535, Metabolic Activation: HAMSTER, LIVER, S-9, AROCLOR 1254 (10 OR 30%), Method: PREINCUBATION
[17] = Strain/Indicator: TA1535, Metabolic Activation: RAT, LIVER, S-9, AROCLOR 1254 (10 OR 30%), Method: PREINCUBATION

SMILES	mutagenic call [1]	mutagenic call [2]	mutagenic call [3]	mutagenic call [4]	mutagenic call [5]	mutagenic call [6]	mutagenic call [7]	mutagenic call [8]	mutagenic call [9]	mutagenic call [10]	mutagenic call [11]	mutagenic call [12]	mutagenic call [13]	mutagenic call [14]	mutagenic call [15]	mutagenic call [16]	mutagenic call [17]	further results
C=CC1CC=CCC1 (stereo unspecified)	inactive; negative	inactive; negative	inactive; negative	inactive; negative	inactive; negative	inactive; negative	inactive; negative	inactive; negative	–	–	–	–	–	–	–	–	–	mutagenic call (Strain/Indicator: TA98, Metabolic Activation: HAMSTER, LIVER, S-9, AROCLOR 1254, Method: PREINCUBATION): inactive; negative; mutagenic call (Strain/Indicator: TA98, Metabolic Activation: RAT, LIVER, S-9, AROCLOR 1254, Method: PREINCUBATION): inactive; negative; mutagenic call (Strain/Indicator: TA100, Metabolic Activation: HAMSTER, LIVER, S-9, AROCLOR 1254, Method: PREINCUBATION): inactive; negative; mutagenic call (Strain/Indicator: TA100, Metabolic Activation: RAT, LIVER, S-9, AROCLOR 1254, Method: PREINCUBATION): inactive; negative; mutagenic call (Strain/Indicator: TA1535, Metabolic Activation: HAMSTER, LIVER, S-9, AROCLOR 1254 (10%), Method: PREINCUBATION): inactive; negative; mutagenic call (Strain/Indicator: TA1535, Metabolic Activation: HAMSTER, LIVER, S-9, AROCLOR 1254, Method: PREINCUBATION): inactive; negative; mutagenic call (Strain/Indicator: TA1535, Metabolic Activation: RAT, LIVER, S-9, AROCLOR 1254 (10%), Method: PREINCUBATION): inactive; negative; mutagenic call (Strain/Indicator: TA1535, Metabolic Activation: RAT, LIVER, S-9, AROCLOR 1254, Method: PREINCUBATION): inactive; negative; mutagenic call (Strain/Indicator: TA1537, Metabolic Activation: HAMSTER, LIVER, S-9, AROCLOR 1254 (10%), Method: PREINCUBATION): inactive; negative; mutagenic call (Strain/Indicator: TA1537, Metabolic Activation: HAMSTER, LIVER, S-9, AROCLOR 1254, Method: PREINCUBATION): inactive; negative; mutagenic call (Strain/Indicator: TA1537, Metabolic Activation: RAT, LIVER, S-9, AROCLOR 1254 (10%), Method: PREINCUBATION): inactive; negative; mutagenic call (Strain/Indicator: TA1537, Metabolic Activation: RAT, LIVER, S-9, AROCLOR 1254, Method: PREINCUBATION): inactive; negative
CC(=O)Nc1ccc(Sc2ccccc2)cc1	–	–	–	–	–	–	–	–	inactive; negative	–	–	–	–	–	–	–	–	mutagenic call (Strain/Indicator: TA98, Metabolic Activation: RAT, LIVER, S-9, AROCLOR 1254, Method: STANDARD PLATE): active; positive
CCCCCc1cc(O)cc(O)c1	inactive; negative	inactive; negative	inactive; negative	inactive; negative	inactive; negative	inactive; negative	inactive; negative	–	–	inactive; negative	inactive; negative	inactive; negative	inactive; negative	inactive; negative	inactive; negative	inactive; negative	inactive; negative	mutagenic call (Strain/Indicator: TA98, Metabolic Activation: RAT, LIVER, S-9, AROCLOR 1254 (30%), Method: PREINCUBATION): inactive; negative
Nc1ccc(Cl)cc1Cl	inactive; negative	inactive; negative	inactive; negative	inactive; negative	inactive; negative	inactive; negative	inactive; negative	inactive; negative	–	inactive; negative	inactive; negative	inactive; negative	inactive; negative	inactive; negative	inactive; negative	inactive; negative	inactive; negative	mutagenic call (Strain/Indicator: TA98, Metabolic Activation: RAT, LIVER, S-9, AROCLOR 1254 (5 OR 30%), Method: PREINCUBATION): inactive; negative; mutagenic call (Strain/Indicator: TA100, Metabolic Activation: HAMSTER, LIVER, S-9, AROCLOR 1254 (5%), Method: PREINCUBATION): inactive; negative; mutagenic call (Strain/Indicator: TA1537, Metabolic Activation: HAMSTER, LIVER, S-9, AROCLOR 1254 (30%), Method: PREINCUBATION): inactive; negative; mutagenic call (Strain/Indicator: TA1537, Metabolic Activation: RAT, LIVER, S-9, AROCLOR 1254 (30%), Method: PREINCUBATION): inactive; negative
CCCN(C(=O)CCCl)c1snc2ccccc12	–	–	–	–	–	–	–	–	inactive; negative	–	–	–	–	–	–	–	–	mutagenic call (Strain/Indicator: TA98, Metabolic Activation: S-9, Method: STANDARD PLATE): inactive; negative; mutagenic call (Strain/Indicator: TA100, Metabolic Activation: NONE, Method: STANDARD PLATE): inactive; negative; mutagenic call (Strain/Indicator: TA100, Metabolic Activation: S-9, Method: STANDARD PLATE): inactive; negative; mutagenic call (Strain/Indicator: TA1535, Metabolic Activation: NONE, Method: STANDARD PLATE): active; positive; mutagenic call (Strain/Indicator: TA1535, Metabolic Activation: S-9, Method: STANDARD PLATE): active; positive; mutagenic call (Strain/Indicator: TA1537, Metabolic Activation: NONE, Method: STANDARD PLATE): inactive; negative; mutagenic call (Strain/Indicator: TA1537, Metabolic Activation: S-9, Method: STANDARD PLATE): inactive; negative
